Source: US9873709B2 (priority 2013, dated 2018)
pIC50: −log10 of the molar value.

test system: JAK1-dependent STAT6 phosphorylation downstream of IL-13 stimulation in TF-1 human erythroleukemia cells; experiment: cells; conditions: TF-1, read-out: IL-13-pSTAT6 IC50

Row | pIC50 | Structure (SMILES)
1 | 6.64 | O=C(NCC1CCCN1)c1ccc(Nc2nc3c(C4=CCN(C(=O)CCC(F)(F)F)CC4)cccn3n2)cc1 (centres unmarked) [Example 2-317, N-(pyrrolidin-2-ylmethyl)-4-[[8-[1-(4,4,4-trifluorobutanoyl)-3,6-dihydro-2H-pyridin-4-yl]-[1,2,4]triazolo[1,5-a]pyridin-2-yl]amino]benzamide]
2 | 7.42 | O=C(CCC(F)(F)F)N1CC=C(c2cccn3nc(Nc4ccc(C(=O)N5CCNCC5)cc4)nc23)CC1 [Example 2-318, 4,4,4-trifluoro-1-[4-[2-[4-(piperazine-1-carbonyl)anilino]-[1,2,4]triazolo[1,5-a]pyridin-8-yl]-3,6-dihydro-2H-pyridin-1-yl]butan-1-one]
3 | 7.61 | CC1CNCCN1C(=O)c1ccc(Nc2nc3c(C4=CCN(C(=O)CCC(F)(F)F)CC4)cccn3n2)cc1 (centres unmarked) [Example 2-319, 4,4,4-trifluoro-1-[4-[2-[4-(2-methylpiperazine-1-carbonyl)anilino]-[1,2,4]triazolo[1,5-a]pyridin-8-yl]-3,6-dihydro-2H-pyridin-1-yl]butan-1-one]
4 | 6.92 | O=C(CCC(F)(F)F)N1CC=C(c2cccn3nc(Nc4ccc(C(=O)N5CC[C@H]6CNC[C@H]65)cc4)nc23)CC1 [Example 2-320, 1-[4-[2-[4-[(3aS,6aS)-3,3a,4,5,6,6a-hexahydro-2H-pyrrolo[2,3-c]pyrrole-1-carbonyl]anilino]-[1,2,4]triazolo[1,5-a]pyridin-8-yl]-3,6-dihydro-2H-pyridin-1-yl]-4,4,4-trifluoro-butan-1-one]
5 | 6.60 | O=C(CCC(F)(F)F)N1CC=C(c2cccn3nc(Nc4ccc(C(=O)N5C[C@H]6CNC[C@H]6C5)cc4)nc23)CC1 [Example 2-321, 1-[4-[2-[4-[(3aR,6aS)-2,3,3a,4,6,6a-hexahydro-1H-pyrrolo[3,4-c]pyrrole-5-carbonyl]anilino]-[1,2,4]triazolo[1,5-a]pyridin-8-yl]-3,6-dihydro-2H-pyridin-yl]-4,4,4-trifluoro-butan-1-one]
6 | 7.76 | N[C@]12C[C@H]1CN(C(=O)c1ccc(Nc3nc4c(C5=CCN(C(=O)CCC(F)(F)F)CC5)cccn4n3)cc1)C2 [Example 2-323]
7 | 6.72 | CN(C)C(=O)C1CN(C(=O)c2ccc(Nc3nc4c(C5=CCN(C(=O)CCC(F)(F)F)CC5)cccn4n3)cc2)CCN1C (centres unmarked) [Example 2-325, N,N,1-trimethyl-4-[4-[[8-[1-(4,4,4-trifluorobutanoyl)-3,6-dihydro-2H-pyridin-4-yl]-[1,2,4]triazolo[1,5-a]pyridin-2-yl]amino]benzoyl] piperazine-2-carboxamide]
8 | 8.38 | CN1C[C@@H]2CCN(C(=O)c3ccc(Nc4nc5c(C6=CCN(C(=O)CCC(F)(F)F)CC6)cccn5n4)cc3)[C@@H]2C1 [Example 2-326, 1-[4-[2-[4-[(3aS,6aS)-5-methyl-2,3,3a,4,6,6a-hexahydropyrrolo[2,3-c]pyrrole-1-carbonyl]anilino]-[1,2,4]triazolo[1,5-a]pyridin-8-yl]-3,6-dihydro-2H-pyridin-1-yl]-4,4,4-trifluoro-butan-1-one]
9 | 7.91 | CN1CCC2(C1)CN(C(=O)c1ccc(Nc3nc4c(C5=CCN(C(=O)CCC(F)(F)F)CC5)cccn4n3)cc1)C2 [Example 2-328, 4,4,4-trifluoro-1-[4-[2-[4-(7-methyl-2,7-diazaspiro[3.4]octane-2-carbonyl)anilino]-[1,2,4]triazolo[1,5-a]pyridin-8-yl]-3,6-dihydro-2H-pyridin-1-yl]butan-1-one]
10 | 8.05 | COCCN1CCN(C(=O)c2ccc(Nc3nc4c(C5=CCN(C(=O)CCC(F)(F)F)CC5)cccn4n3)cc2)CC1 [Example 2-331, 4,4,4-trifluoro-1-[4-[2-[4-[4-(2-methoxyethyl)piperazine-1-carbonyl]anilino]-[1,2,4]triazolo[1,5-a]pyridin-8-yl]-3,6-dihydro-2H-pyridin-1-yl]butan-1-one]
11 | 7.84 | CN1CCC(NC(=O)c2ccc(Nc3nc4c(C5=CCN(C(=O)CCC(F)(F)F)CC5)cccn4n3)cc2)CC1 [Example 2-335, N-(1-methyl-4-piperidyl)-4-[[8-[1-(4,4,4-trifluorobutanoyl)-3,6-dihydro-2H-pyridin-4-yl]-[1,2,4]triazolo[1,5-a]pyridin-2-yl]amino]benzamide]
12 | 7.54 | CN1CCCC(CNC(=O)c2ccc(Nc3nc4c(C5=CCN(C(=O)CCC(F)(F)F)CC5)cccn4n3)cc2)C1 (centres unmarked) [Example 2-337, N-[(1-methyl-3-piperidyl)methyl]-4-[[8-[1-(4,4,4-trifluorobutanoyl)-3,6-dihydro-2H-pyridin-4-yl]-[1,2,4]triazolo[1,5-a]pyridin-2-yl]amino]benzamide]
13 | 8.01 | O=C(CCC(F)(F)F)N1CC=C(c2cccn3nc(Nc4ccc(C(=O)N5CCCC(N6CCOCC6)C5)cc4)nc23)CC1 (centres unmarked) [Example 2-339, 4,4,4-trifluoro-1-[4-[2-[4-(3-morpholinopiperidine-1-carbonyl)anilino]-[1,2,4]triazolo[1,5-a]pyridin-8-yl]-3,6-dihydro-2H-pyridin-1-yl]butan-1-one]
14 | 7.94 | O=C(CCC(F)(F)F)N1CC=C(c2cccn3nc(Nc4ccc(C(=O)N5CCCC(c6ccccn6)C5)cc4)nc23)CC1 (centres unmarked) [Example 2-341, 4,4,4-trifluoro-1-[4-[2-[4-[3-(2-pyridyl)piperidine-1-carbonyl]anilino]-[1,2,4]triazolo[1,5-a]pyridin-8-yl]-3,6-dihydro-2H-pyridin-1-yl]butan-1-one]

Continued, molecule first:

Row | Structure (SMILES) | pIC50
15 | O=C(NC1CC2(CCNCC2)C1)c1ccc(Nc2nc3c(C4=CCN(C(=O)CCC(F)(F)F)CC4)cccn3n2)cc1 [Example 2-322, N-(7-azaspiro[3.5]nonan-2-yl)-4-[[8-[1-(4,4,4-trifluorobutanoyl)-3,6-dihydro-2H-pyridin-4-yl]-[1,2,4]triazolo[1,5-a]pyridin-2-yl]amino]benzamide] | 6.98
16 | CN1CCCCC1C1CCCN1C(=O)c1ccc(Nc2nc3c(C4=CCN(C(=O)CCC(F)(F)F)CC4)cccn3n2)cc1 (centres unmarked) [Example 2-324, 4,4,4-trifluoro-1-[4-[2-[4-[2-(1-methyl-2-piperidyl)pyrrolidine-1-carbonyl]anilino]-[1,2,4]triazolo[1,5-a]pyridin-8-yl]-3,6-dihydro-2H-pyridin-yl]butan-1-one] | 8.09
17 | O=C(CCC(F)(F)F)N1CC=C(c2cccn3nc(Nc4ccc(C(=O)N5CCN(C6CCCCC6)CC5)cc4)nc23)CC1 [Example 2-329, 1-[4-[2-[4-(4-cyclohexylpiperazine-1-carbonyl)anilino]-[1,2,4]triazolo[1,5-a]pyridin-8-yl]-3,6-dihydro-2H-pyridin-1-yl]-4,4,4-trifluoro-butan-1-one] | 8.08
18 | CC(C)N1CCC(N(C)C(=O)c2ccc(Nc3nc4c(C5=CCN(C(=O)CCC(F)(F)F)CC5)cccn4n3)cc2)CC1 [Example 2-330, N-(1-isopropyl-4-piperidyl)-N-methyl-4-[[8-[1-(4,4,4-trifluorobutanoyl)-3,6-dihydro-2H-pyridin-4-yl]-[1,2,4]triazolo[1,5-a]pyridin-2-yl]amino]benzamide] | 7.87
19 | CN1C(C)(C)CC(NC(=O)c2ccc(Nc3nc4c(C5=CCN(C(=O)CCC(F)(F)F)CC5)cccn4n3)cc2)CC1(C)C [Example 2-332, N-(1,2,2,6,6-pentamethyl-4-piperidyl)-4-[[8-[1-(4,4,4-trifluorobutanoyl)-3,6-dihydro-2H-pyridin-4-yl]-[1,2,4]triazolo[1,5-a]pyridin-2-yl]amino]benzamide] | 8.04
20 | CC(C)(CN1CCOCC1)NC(=O)c1ccc(Nc2nc3c(C4=CCN(C(=O)CCC(F)(F)F)CC4)cccn3n2)cc1 [Example 2-333, N-(1,1-dimethyl-2-morpholino-ethyl)-4-[[8-[1-(4,4,4-trifluorobutanoyl)-3,6-dihydro-2H-pyridin-4-yl]-[1,2,4]triazolo[1,5-a]pyridin-2-yl]amino]benzamide] | 8.26
21 | CN(C)CCNC(=O)c1ccc(Nc2nc3c(C4=CCN(C(=O)CCC(F)(F)F)CC4)cccn3n2)cc1 [Example 2-336, N-[2-(dimethylamino)ethyl]-4-[[8-[1-(4,4,4-trifluorobutanoyl)-3,6-dihydro-2H-pyridin-4-yl]-[1,2,4]triazolo[1,5-a]pyridin-2-yl]amino]benzamide] | 8.07
22 | O=C(CCC(F)(F)F)N1CC=C(c2cccn3nc(Nc4ccc(C(=O)N5CCN(CC6CCCO6)CC5)cc4)nc23)CC1 (centres unmarked) [Example 2-340, 4,4,4-trifluoro-1-[4-[2-[4-[4-(tetrahydrofuran-2-ylmethyl)piperazine-1-carbonyl]anilino]-[1,2,4]triazolo[1,5-a]pyridin-8-yl]-3,6-dihydro-2H-pyridin-1-yl]butan-1-one] | 8.41
23 | CNC(=O)C1CN(C(=O)c2ccc(Nc3nc4c(C5=CCN(C(=O)CCC(F)(F)F)CC5)cccn4n3)cc2)CCN1Cc1ccccc1 (centres unmarked) [Example 2-342, 1-benzyl-N-methyl-4-[4-[[8-[1-(4,4,4-trifluorobutanoyl)-3,6-dihydro-2H-pyridin-4-yl]-[1,2,4]triazolo[1,5-a]pyridin-2-yl]amino]benzoyl] piperazine-2-carboxamide] | 7.79
24 | CC(=O)N1CC=C(c2cccn3nc(Nc4ccc(C(=O)N(C)C5CCN(C)CC5)cc4)nc23)CC1 [Example 2-344, 4-[[8-(1-acetyl-3,6-dihydro-2H-pyridin-4-yl)-[1,2,4]triazolo[1,5-a]pyridin-2-yl]amino]-N-methyl-N-(1-methyI-4-piperidyl)benzamide] | 5.74
25 | CC(C)COC(=O)N1CC=C(c2cccn3nc(Nc4ccc(C(=O)N(C)C5CCN(C)CC5)cc4)nc23)CC1 [Example 2-345, isobutyl 4-[2-[4-[methyl-(1-methyl-4-piperidyl)carbamoyl]anilino]-[1,2,4]triazolo[1,5-a]pyridin-8-yl]-3,6-dihydro-2H-pyridine-1-carboxylate] | 7.63
26 | CN1CCC(N(C)C(=O)c2ccc(Nc3nc4c(C5=CCN(C(=O)OC6CCOC6)CC5)cccn4n3)cc2)CC1 (centres unmarked) [Example 2-346, tetrahydrofuran-3-yl 4-[2-[4-[methyl-(1-methyl-4-piperidyl)carbamoyl]anilino]-[1,2,4]triazolo[1,5-a]pyridin-8-yl]-3,6-dihydro-2H-pyridine-1-carboxylate] | 7.05
